tested on: Pyricularia grisea; assay: Fungicidal activity against Magnaporthe grisea in rice seedlings assessed as area of infection on leaves treated 24 hr prior to spore inoculation measured 5 days after the fungal challenge; format: functional

Compound | log(%)
COc1ccc(NC(=O)Cc2cs/c(=N\c3ccc(Cl)c(C(F)(F)F)c3)n2C)cc1 | 2
Cn1c(CC(=O)Nc2ccc(C(F)F)cc2)cs/c1=N\c1ccc(Br)cc1 | 1.4
CCCCCCc1ccc(/N=c2/scc(CC(=O)Nc3ccc(CC)cc3)n2C)cc1 | 2
CCCCOc1ccc(NC(=O)Cc2cs/c(=N/c3ccc(C(F)(F)F)cc3)n2C)cc1 | 1
CC(C)c1ccc(NC(=O)Cc2cs/c(=N/c3ccc(C(F)(F)F)cc3)n2C)cc1 | 1.8
CCc1ccc(NC(=O)Cc2cs/c(=N/c3ccc(Cl)cc3)n2C)cc1 | 2
Cn1c(CC(=O)Nc2ccc(Br)cc2)cs/c1=N\c1cccc(F)c1 | 1.9
CCc1ccc(NC(=O)Cc2cs/c(=N/c3ccc([N+](=O)[O-])cc3OC)n2C)cc1 | 1.81
CCc1ccc(NC(=O)Cc2cs/c(=N\c3ccc(OC)cc3C)n2C)cc1 | 2
CCOc1ccc(NC(=O)Cc2cs/c(=N\c3ccc(F)cc3F)n2C)cc1 | 1.9
Cn1c(CC(=O)Nc2ccc(OC(F)(F)F)cc2)cs/c1=N\c1cccc(C(F)(F)F)c1 | 1.7
CCCCOc1ccc(NC(=O)Cc2cs/c(=N\c3cccc(F)c3)n2C)cc1 | 1
COc1ccc(/N=c2\scc(CC(=O)Nc3ccc(C(F)F)cc3)n2C)cc1 | 1.4
Cn1c(CC(=O)Nc2ccc(Oc3ccccc3)cc2)cs/c1=N/c1ccc(Oc2ccccc2)cc1 | 1.4
CCc1ccc(NC(=O)Cc2cs/c(=N\c3ccc(Br)cc3F)n2C)cc1 | 2
CCc1ccc(NC(=O)Cc2cs/c(=N/c3ccc(C(C)=O)cc3)n2C)cc1 | 2

Compound | log(%)
COc1ccccc1/N=c1\scc(CC(=O)Nc2ccc(OC(F)(F)F)cc2)n1C | 0.7
COc1ccc(NC(=O)Cc2cs/c(=N\c3cccc(C(F)(F)F)c3)n2C)cc1 | 2
Cn1c(CC(=O)Nc2ccc(Cl)cc2)cs/c1=N/c1ccc(-c2ccccc2)cc1 | 1.98
COc1ccc(NC(=O)Cc2cs/c(=N\c3ccccc3C(C)C)n2C)cc1 | 1.9
Cn1c(CC(=O)Nc2ccc([N+](=O)[O-])cc2)cs/c1=N/c1ccc(F)cc1 | 0.9
COc1ccc(NC(=O)Cc2cs/c(=N/c3ccc([N+](=O)[O-])cc3)n2C)cc1 | 2
Cn1c(CC(=O)Nc2ccc(OC(F)(F)F)cc2)cs/c1=N\c1cccc(Br)c1 | 1.7
CCc1ccc(NC(=O)Cc2cs/c(=N/c3ccc(CC#N)cc3)n2C)cc1 | 2
Cn1c(CC(=O)Nc2ccc(OC(F)(F)F)cc2)cs/c1=N\c1ccc(F)cc1 | 0.9
CCCCc1ccc(NC(=O)Cc2cs/c(=N\c3ccc(F)c(Cl)c3)n2C)cc1 | 1.3
Cn1c(CC(=O)Nc2ccc([N+](=O)[O-])cc2)cs/c1=N/c1ccc(C#N)cc1 | 0.7
CCCCc1ccc(NC(=O)Cc2cs/c(=N\c3cccc(F)c3)n2C)cc1 | 1
CC(C)Oc1ccc(/N=c2/scc(CC(=O)Nc3ccc(C(F)F)cc3)n2C)cc1 | 1.7
COc1ccc(/N=c2/scc(CC(=O)Nc3ccc(OC(F)(F)F)cc3)n2C)cc1 | 1.4
CCc1ccc(NC(=O)Cc2cs/c(=N\c3ccc(C)cc3Cl)n2C)cc1 | 2
Cn1c(CC(=O)Nc2ccc(Oc3ccccc3)cc2)cs/c1=N\c1cccc(Br)c1 | 0.9
